Results reported in US7211572B2 (Japan Tobacco Inc., priority 2003, dated 2007).
Counter-ions that a name gives are not always drawn.

biological target: T1, HIV integrase (Human immunodeficiency virus type 1 group M subtype B, UniProt P12497, F1332H); test: Determination of enzyme (HIV integrase) inhibitory activity; format: biochemical; settings: recombinant HIV integrase (F185H), strand transfer ELISA, absorbance at 450 nm
T1 construct: HIV integrase full length gene; made in house; host or cells: Escherichia coli BL21(DE3), plasmid pET21a-INH
From the text: The following explains evaluation methods of the HIV integrase inhibitory activity of the compound of the present invention.
(i) Construction of Recombinant Integrase Gene Expression System
The 185th phenylalanine of HIV integrase full length gene (J. Virol., 67, 425–437 (1993)) was substituted by histidine and inserted into the restriction enzyme NdeI and XhoI sites of plasmid pET21a(+) (Novagen), whereby an integrase expression vector pET21a-INH was constructed.
(ii) Production and Purification of Integrase Protein
Escherichia coli recombinant BL21(DE3) transformed with plasmid pET21a-INH obtained in (i) was shake cultured at 37° C. in a liquid medium containing ampicillin. When the culture reached the logarithmic growth phase, isopropyl-β-D-thiogalactopyranoside was added to promote expression of integrase gene. The culture was continued for 3 hr to promote accumulation of the integrase protein. The recombinant E. coli was collected in pellets by centrifugal separation and preserved at −80° C.
The E. coli was suspended in Lysis buffer (20 mM HEPES (pH 7.5), 5 mM DTT, 10 mM CHAPS, 10% glycerol) containing 1M sodium chloride and subjected to repeat pressurization and depressurization for rupture, and centrifugal separation at 4° C., 40,000×g, 60 min to recover a water-soluble fraction (supernatant). This was diluted 10-fold with Lysis buffer free of sodium chloride, mixed with SP-Sepharose (Pharmacia Corporation) and stirred at 4° C. for 30 min to allow adsorption of integrase protein to the resin. The resin was washed with Lysis buffer containing 100 mM sodium chloride and the integrase protein was eluted with Lysis buffer containing 1M sodium chloride.
The eluted integrase protein solution was applied to a Superdex 75 (Pharmacia Corporation) column for gel filtration. The protein was eluted with Lysis buffer containing 1M sodium chloride.
The obtained fractions of the integrase protein were collected and preserved at −80° C.
(iii) Preparation of DNA Solution
The following DNA synthesized by Greiner was dissolved in TE buffer (10 mM Tris-hydrochloric acid (pH 8.0), 1 mM EDTA) and mixed with donor DNA, target DNA, and each complementary strand (+ and − strands) to 1 μM. The mixture was heated at 95° C. for 5 min, 80° C. for 10 min, 70° C. for 10 min, 60° C. for 10 min, 50° C. for 10 min and 40° C. for 10 min and preserved at 25° C. to give a double stranded DNA, which was used for the test.
Donor DNA (− strand having biotin attached to the 5′ terminal)
(iv) Determination of Enzyme (HIV Integrase) Inhibitory Activity
The donor DNA was diluted with TE buffer to 10 nM, of which 50 μl was added to each well of streptavidin-coated microtiter plate (Roche) and allowed to adsorb at 37° C. for 60 min. The DNA was washed with phosphate buffer (Dulbecco PBS, Sanko Junyaku Co., Ltd.) containing 0.1% Tween 20 and phosphate buffer. Then, a reaction mixture (70 μl) having the following composition, a test substance (10 μl) diluted with the reaction mixture and 100 μg/ml integrase protein (10 μl) were added to each well and reacted at 37° C. for 60 min.
Composition of the reaction mixture: 30 mM MOPS (3-morpholinopropanesulfonic acid), 5 mM magnesium chloride, 3 mM DTT (dithiothreitol), 0.1 mg/ml BSA (bovine serum albumin), 5% glycerol, 10% DMSO (dimethyl sulfoxide), 0.01% Tween 20.
Then, 50 nM target DNA (10 μl) was added, reacted at 37° C. for 10 min and washed with phosphate buffer containing 0.1% Tween 20 to stop the reaction.
Then, 100 mU/ml peroxidase labeled anti-digoxigenin antibody solution (Roche, 100 μl) was added, and the mixture was reacted at 30° C. for 60 min, followed by washing with phosphate buffer containing 0.1% Tween 20.
A peroxidase color solution (Bio Rad, 100 μl) was added and allowed to react at room temperature for 4 min. The color reaction was stopped by adding 1N sulfuric acid (100 μl). The absorbance at 450 nm was measured. […]

| Structure (SMILES) | IC50 [nM] |
| --- | --- |
| O=C1c2c(O)c(=O)ccn2CCN1Cc1ccc(Cl)c(Cl)c1 [Example 1, 2-(3,4-dichlorobenzyl)-9-hydroxy-3,4-dihydro-2H-pyrido[1,2-a]pyrazine-1,8-dione hydrochloride] | < 10 |
| CC1Cn2ccc(=O)c(O)c2C(=O)N1Cc1ccc(Cl)c(Cl)c1 (centres unmarked) [Example 3, 2-(3,4-dichlorobenzyl)-9-hydroxy-3-methyl-3,4-dihydro-2H-pyrido[1,2-a]pyrazine-1,8-dione] | 10 to 100 |
| CC1(C)CN(Cc2ccc(Cl)c(Cl)c2)C(=O)c2c(O)c(=O)ccn21 [Example 4, 2-(3,4-dichlorobenzyl)-9-hydroxy-4,4-dimethyl-3,4-dihydro-2H-pyrido[1,2-a]pyrazine-1,8-dione] | 10 to 100 |
| O=C1c2c(O)c(=O)cc(CO)n2CCN1Cc1ccc(Cl)c(Cl)c1 [Example 5, 2-(3,4-dichlorobenzyl)-9-hydroxy-6-hydroxymethyl-3,4-dihydro-2H-pyrido[1,2-a]pyrazine-1,8-dione] | 10 to 100 |
| O=C(O)c1cc(=O)c(O)c2n1CCN(Cc1ccc(Cl)c(Cl)c1)C2=O [Example 6, 2-(3,4-dichlorobenzyl)-9-hydroxy-1,8-dioxo-1,3,4,8-tetrahydro-2H-pyrido[1,2-a]pyrazine-6-carboxylic acid] | 10 to 100 |
| CC(C)(C)C(=O)c1cc(=O)c(O)c2n1CCN(Cc1ccc(Cl)c(Cl)c1)C2=O [Example 7, 2-(3,4-dichlorobenzyl)-6-(2,2-dimethylpropionyl)-9-hydroxy-3,4-dihydro-2H-pyrido[1,2-a]pyrazine-1,8-dione] | < 10 |
| O=c1ccn2ccn(Cc3ccc(Cl)c(Cl)c3)c(=O)c2c1O [Example 8, 2-(3,4-dichlorobenzyl)-9-hydroxy-2H-pyrido[1,2-a]pyrazine-1,8-dione] | < 10 |
| Cc1cn2ccc(=O)c(O)c2c(=O)n1Cc1ccc(Cl)c(Cl)c1 [Example 9, 2-(3,4-dichlorobenzyl)-9-hydroxy-3-methyl-2H-pyrido[1,2-a]pyrazine-1,8-dione] | 10 to 100 |
| CC(C)c1cn(Cc2cccc(Cl)c2)c(=O)c2c(O)c(=O)ccn12 [Example 10, 2-(3-chlorobenzyl)-9-hydroxy-4-isopropyl-2H-pyrido[1,2-a]pyrazine-1,8-dione hydrochloride] | 10 to 100 |
| O=c1ccn2ccn(CCCc3c(Cl)cccc3Cl)c(=O)c2c1O [Example 11, 2-[3-(2,6-dichlorophenyl)propyl]-9-hydroxy-2H-pyrido[1,2-a]pyrazine-1,8-dione] | < 10 |
| O=c1ncn2ccn(Cc3ccc(Cl)c(Cl)c3)c(=O)c2c1O [Example 12, 2-(3,4-dichlorobenzyl)-9-hydroxy-2H-pyrazino[1,2-a]pyrimidine-1,8-dione hydrochloride] | 10 to 100 |
| CC1CN(Cc2ccc(Cl)c(Cl)c2)C(=O)c2c(O)c(=O)ccn21 (centres unmarked) [Example 13, 2-(3,4-dichlorobenzyl)-9-hydroxy-4-methyl-3,4-dihydro-2H-pyrido[1,2-a]pyrazine-1,8-dione] | 10 to 100 |
| O=C1c2c(O)c(=O)ccn2C(Cc2ccccc2)CN1Cc1ccc(Cl)c(Cl)c1 (centres unmarked) [Example 14, 4-benzyl-2-(3,4-dichlorobenzyl)-9-hydroxy-3,4-dihydro-2H-pyrido[1,2-a]pyrazine-1,8-dione] | 10 to 100 |
| O=C1c2c(O)c(=O)ccn2C(c2ccccc2)CN1Cc1ccc(Cl)c(Cl)c1 (centres unmarked) [Example 15, 2-(3,4-dichlorobenzyl)-9-hydroxy-4-phenyl-3,4-dihydro-2H-pyrido[1,2-a]pyrazine-1,8-dione] | 10 to 100 |
| CCCCC1CN(Cc2ccc(Cl)c(Cl)c2)C(=O)c2c(O)c(=O)ccn21 (centres unmarked) [Example 16, 4-butyl-2-(3,4-dichlorobenzyl)-9-hydroxy-3,4-dihydro-2H-pyrido[1,2-a]pyrazine-1,8-dione] | 10 to 100 |
| CC(C)C1CN(Cc2ccc(Cl)c(Cl)c2)C(=O)c2c(O)c(=O)ccn21 (centres unmarked) [Example 17, 2-(3,4-dichlorobenzyl)-9-hydroxy-4-isopropyl-3,4-dihydro-2H-pyrido[1,2-a]pyrazine-1,8-dione] | 10 to 100 |
| CC1(C)Cn2ccc(=O)c(O)c2C(=O)N1Cc1ccc(Cl)c(Cl)c1 [Example 18, 2-(3,4-dichlorobenzyl)-9-hydroxy-3,3-dimethyl-3,4-dihydro-2H-pyrido[1,2-a]pyrazine-1,8-dione] | 10 to 100 |
| O=C1c2c(O)c(=O)ccn2C2(CCCC2)CN1Cc1ccc(Cl)c(Cl)c1 [Example 19, 2-(3,4-dichlorobenzyl)-9-hydroxy-3,4-dihydro-2H-pyrido[1,2-a]pyrazine-4-spiro-1′-cyclopentane-1,8-dione] | 10 to 100 |
| O=C1c2c(O)c(=O)ccn2C2(CCCCC2)CN1Cc1ccc(Cl)c(Cl)c1 [Example 20, 2-(3,4-dichlorobenzyl)-9-hydroxy-3,4-dihydro-2H-pyrido[1,2-a]pyrazine-4-spiro-1′-cyclohexane-1,8-dione] | 10 to 100 |
| COC(=O)C1CN(Cc2ccc(Cl)c(Cl)c2)C(=O)c2c(O)c(=O)ccn21 (centres unmarked) [Example 21, methyl 2-(3,4-dichlorobenzyl)-9-hydroxy-1,8-dioxo-1,3,4,8-tetrahydro-2H-pyrido[1,2-a]pyrazine-4-carboxylate] | 10 to 100 |
| O=C(O)C1CN(Cc2ccc(Cl)c(Cl)c2)C(=O)c2c(O)c(=O)ccn21 (centres unmarked) [Example 22, 2-(3,4-dichlorobenzyl)-9-hydroxy-1,8-dioxo-1,3,4,8-tetrahydro-2H-pyrido[1,2-a]pyrazine-4-carboxylic acid] | 10 to 100 |
| COCc1cc(=O)c(O)c2n1CCN(Cc1ccc(Cl)c(Cl)c1)C2=O [Example 23, 2-(3,4-dichlorobenzyl)-9-hydroxy-6-methoxymethyl-3,4-dihydro-2H-pyrido[1,2-a]pyrazine-1,8-dione] | 10 to 100 |
| CN(C)C(=O)c1cc(=O)c(O)c2n1CCN(Cc1ccc(Cl)c(Cl)c1)C2=O [Example 24, N,N-dimethyl-2-(3,4-dichlorobenzyl)-9-hydroxy-1,8-dioxo-1,3,4,8-tetrahydro-2H-pyrido[1,2-a]pyrazine-6-carboxamide] | 10 to 100 |
| O=C1c2c(O)c(=O)ccn2CC(Cc2ccccc2)N1Cc1ccc(Cl)c(Cl)c1 (centres unmarked) [Example 25, 3-benzyl-2-(3,4-dichlorobenzyl)-9-hydroxy-3,4-dihydro-2H-pyrido[1,2-a]pyrazine-1,8-dione] | 10 to 100 |
| CCCCC1Cn2ccc(=O)c(O)c2C(=O)N1Cc1ccc(Cl)c(Cl)c1 (centres unmarked) [Example 26, 3-butyl-2-(3,4-dichlorobenzyl)-9-hydroxy-3,4-dihydro-2H-pyrido[1,2-a]pyrazine-1,8-dione] | 10 to 100 |
| CN(C)C(=O)C1CN(Cc2ccc(Cl)c(Cl)c2)C(=O)c2c(O)c(=O)ccn21 (centres unmarked) [Example 27, N,N-dimethyl-2-(3,4-dichlorobenzyl)-9-hydroxy-1,8-dioxo-1,3,4,8-tetrahydro-2H-pyrido[1,2-a]pyrazine-4-carboxamide] | 100 to 1000 |
| O=C1c2c(O)c(=O)ccn2C(CO)CN1Cc1ccc(Cl)c(Cl)c1 (centres unmarked) [Example 28, 2-(3,4-dichlorobenzyl)-9-hydroxy-4-hydroxymethyl-3,4-dihydro-2H-pyrido[1,2-a]pyrazine-1,8-dione] | 10 to 100 |
| COCC1CN(Cc2ccc(Cl)c(Cl)c2)C(=O)c2c(O)c(=O)ccn21 (centres unmarked) [Example 29, 2-(3,4-dichlorobenzyl)-9-hydroxy-4-methoxymethyl-3,4-dihydro-2H-pyrido[1,2-a]pyrazine-1,8-dione] | 10 to 100 |
| CSCc1cc(=O)c(O)c2n1CCN(Cc1ccc(Cl)c(Cl)c1)C2=O [Example 30, 2-(3,4-dichlorobenzyl)-9-hydroxy-6-methylsulfanylmethyl-3,4-dihydro-2H-pyrido[1,2-a]pyrazine-1,8-dione] | 10 to 100 |
